In patent US20100210602A1, “PhoU (PerF), A P[…] INVOLVED IN [sequence] FORMATION AND TOLERANCE TO MULTIPLE ANTIBIOTICS AND [sequence] AS A DRUG TARGET FOR [sequence] BACTERIA” (priority 2006, published 2010):
Converted amounts (≈) assume the structure as drawn. Like-named read-outs stand apart in the source and are kept apart here.

Assays:
Type in all cases: cell-based, M. tuberculosis
[1] = tested on: PhoY1 mutant
[2] = tested on: PhoY2 mutant
[3] = tested on: PhoY2 mutant; remark: listed apart in the source
[4] = tested on: PhoY1 mutant; remark: listed apart in the source
[5] = tested on: PhoY1 mutant; remark: listed apart in the source
[6] = tested on: PhoY2 mutant; remark: listed apart in the source

SMILES | PhoY1 MIC ([1]; pH 5.6) | PhoY2 MIC ([2]; pH 5.6) | MBC ([3]; pH 5.9) | MIC ([3]; pH 5.9) | MBC ([4]; pH 5.9) | MIC ([4]; pH 5.9) | CFU/ml 3 day ([5]; 200 μg/ml) | CFU/ml 9 day ([5]; 200 μg/ml) | CFU/ml 3 day ([6]; 200 μg/ml) | CFU/ml 9 day ([6]; 200 μg/ml) | PhoY1 MIC [1] | PhoY2 MIC [2] | MBC [3] | MIC [3] | MBC [4] | MIC [4] | CFU/ml 3 day ([5]; 8 μg/ml) | CFU/ml 9 day ([5]; 8 μg/ml) | CFU/ml 3 day ([6]; 8 μg/ml) | CFU/ml 9 day ([6]; 8 μg/ml)
NC(=O)c1cnccn1 [PZA, pyrazinamide] | 200 µg/mL | 100 µg/mL | 400 µg/mL (≈ 3250 µM) | 100 µg/mL (≈ 812 µM) | 400 µg/mL (≈ 3250 µM) | 200 µg/mL (≈ 1620 µM) | 4.3 × 10^5 CFU/ml | 3.3 × 10^3 CFU/ml | 4.83 × 10^5 CFU/ml | <10^2 CFU/ml | – | – | – | – | – | – | – | – | – | –
NNC(=O)c1ccncc1 [INH, isoniazid] | – | – | – | – | – | – | – | – | – | – | 0.1 µg/mL | 0.1 µg/mL | – | – | – | – | – | – | – | –
CO[C@H]1/C=C/O[C@@]2(C)Oc3c(C)c(O)c4c(O)c(c(/C=N/N5CCN(C)CC5)c(O)c4c3C2=O)NC(=O)/C(C)=C\C=C\[C@H](C)[C@H](O)[C@@H](C)[C@@H](O)[C@@H](C)[C@H](OC(C)=O)[C@@H]1C [RIF, rifampin] | – | – | – | – | – | – | – | – | – | – | 0.1 µg/mL | 0.1 µg/mL | 0.05 µg/mL (≈ 0.0608 µM) | 0.025 µg/mL (≈ 0.0304 µM) | 0.2 µg/mL (≈ 0.243 µM) | 0.05 µg/mL (≈ 0.0608 µM) | 4.97 × 10^5 CFU/ml | 3.13 × 10^4 CFU/ml | 2.27 × 10^5 CFU/ml | <10^2 CFU/ml
